These results are taken from patent US12275731B2, “Azaindole inhibitors of wild-type and mutant forms of LRRK2” (DANA-FARBER CANCER INSTITUTE, INC., priority 2018, dated 2025).

Test in all cases: KinomeScan profiling
Assay type in all cases: binding

One experiment deals with YES (Homo sapiens, UniProt P07947). The conditions noted are these: read-out: % control. A digest of the protocol:
(§1)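 Luminescence (RLU) was converted to percent of control, with DMSO set as 100% and a reference compound as 0%. Test compounds were run at 1 μM against 468 kinases. Kinases showing below 35% of control were scored as bound.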

The target of the next experiment is T1, LKB1 (Homo sapiens, UniProt Q15831).
T1 sequence (Q15831 1-433): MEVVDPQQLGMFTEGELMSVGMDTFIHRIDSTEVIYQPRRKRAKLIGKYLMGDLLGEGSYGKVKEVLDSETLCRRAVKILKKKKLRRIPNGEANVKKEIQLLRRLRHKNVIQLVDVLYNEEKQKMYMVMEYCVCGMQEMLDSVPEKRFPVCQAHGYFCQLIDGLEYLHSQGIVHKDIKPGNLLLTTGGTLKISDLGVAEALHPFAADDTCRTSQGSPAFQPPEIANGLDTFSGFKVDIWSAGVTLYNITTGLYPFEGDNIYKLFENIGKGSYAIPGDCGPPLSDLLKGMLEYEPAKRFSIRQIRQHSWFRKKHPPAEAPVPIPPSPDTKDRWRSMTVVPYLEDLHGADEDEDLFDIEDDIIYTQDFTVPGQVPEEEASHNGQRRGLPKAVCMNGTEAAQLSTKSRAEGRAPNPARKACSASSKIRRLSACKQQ
The settings on record: LKB1, 1 μM; read-out: % control. A digest of the protocol:
as §1

A further experiment concerns the target DYRK1B (Homo sapiens, UniProt Q9Y463). The conditions noted are these: read-out: % control. The essentials:
as §1

In the next experiment the target is MLK3 (Homo sapiens, UniProt Q16584). The settings on record: MLK3, 1 μM; read-out: % control. A digest of the protocol: as §1
Sequence of MLK3 (Q16584 whole entry): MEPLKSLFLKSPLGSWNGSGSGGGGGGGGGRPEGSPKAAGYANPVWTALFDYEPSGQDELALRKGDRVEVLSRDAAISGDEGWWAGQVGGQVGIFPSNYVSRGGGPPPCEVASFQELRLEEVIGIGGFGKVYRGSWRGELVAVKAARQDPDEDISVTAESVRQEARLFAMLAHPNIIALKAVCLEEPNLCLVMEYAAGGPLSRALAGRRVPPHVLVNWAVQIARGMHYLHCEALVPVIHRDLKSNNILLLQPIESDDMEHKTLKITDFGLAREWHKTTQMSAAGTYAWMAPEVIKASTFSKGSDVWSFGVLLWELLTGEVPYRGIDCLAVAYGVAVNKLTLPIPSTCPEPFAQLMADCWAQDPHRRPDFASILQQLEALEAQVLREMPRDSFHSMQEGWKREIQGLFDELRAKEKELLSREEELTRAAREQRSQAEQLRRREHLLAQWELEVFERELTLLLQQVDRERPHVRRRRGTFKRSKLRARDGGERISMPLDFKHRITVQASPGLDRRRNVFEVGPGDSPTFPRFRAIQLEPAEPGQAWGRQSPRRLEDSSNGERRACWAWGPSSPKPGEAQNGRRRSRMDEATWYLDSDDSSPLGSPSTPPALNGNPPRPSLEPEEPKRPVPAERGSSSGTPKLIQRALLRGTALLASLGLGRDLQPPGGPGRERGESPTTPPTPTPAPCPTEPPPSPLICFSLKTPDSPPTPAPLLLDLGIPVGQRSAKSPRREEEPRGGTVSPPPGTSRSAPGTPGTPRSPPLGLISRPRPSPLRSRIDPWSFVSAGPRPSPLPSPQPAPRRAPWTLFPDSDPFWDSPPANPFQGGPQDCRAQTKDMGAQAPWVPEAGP
The target of experiment [1] is T2, ABL1(Q252H)-phosphorylated (Homo sapiens, UniProt P00519, Q252H).
T2 construct: purchased KinomeScan®
The settings on record: read-out: % control. The essentials: as §1

The next experiment has as its target ROCK2 (Homo sapiens, UniProt O75116). The conditions noted are these: ROCK2, 1 μM; read-out: % control. A digest of the protocol: as §1
Another experiment has as its target T3, TYRO3 (Homo sapiens, UniProt Q06418).
T3 sequence (Q06418 41-890): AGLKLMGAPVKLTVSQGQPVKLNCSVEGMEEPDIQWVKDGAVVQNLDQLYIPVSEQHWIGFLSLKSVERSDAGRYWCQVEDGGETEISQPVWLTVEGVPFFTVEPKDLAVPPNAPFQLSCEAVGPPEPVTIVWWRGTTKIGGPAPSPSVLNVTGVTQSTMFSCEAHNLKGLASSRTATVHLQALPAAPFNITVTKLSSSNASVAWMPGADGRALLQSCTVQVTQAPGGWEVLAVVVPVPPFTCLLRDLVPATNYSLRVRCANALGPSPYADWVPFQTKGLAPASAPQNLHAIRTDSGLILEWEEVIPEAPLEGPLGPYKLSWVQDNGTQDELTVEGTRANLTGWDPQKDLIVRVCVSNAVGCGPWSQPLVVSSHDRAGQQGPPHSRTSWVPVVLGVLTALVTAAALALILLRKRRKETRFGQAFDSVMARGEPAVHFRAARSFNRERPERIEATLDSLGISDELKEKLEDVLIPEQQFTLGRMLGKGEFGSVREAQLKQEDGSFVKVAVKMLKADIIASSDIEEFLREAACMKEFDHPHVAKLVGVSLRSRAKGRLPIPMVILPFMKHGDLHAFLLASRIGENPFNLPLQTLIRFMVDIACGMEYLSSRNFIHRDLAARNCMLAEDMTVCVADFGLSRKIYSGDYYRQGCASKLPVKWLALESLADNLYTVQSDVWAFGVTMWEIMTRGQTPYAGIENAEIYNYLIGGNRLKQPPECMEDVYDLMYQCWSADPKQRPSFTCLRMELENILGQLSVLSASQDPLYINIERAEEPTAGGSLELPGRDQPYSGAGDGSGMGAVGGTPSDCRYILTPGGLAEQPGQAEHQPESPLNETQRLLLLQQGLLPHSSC
The conditions noted are these: TYRO3, 1 μM; read-out: % control. A digest of the protocol:
as §1

In another experiment the target is ROS1 (Homo sapiens, UniProt P08922). The settings on record: ROS1, 1 μM; read-out: % control. A digest of the protocol: as §1
The next experiment has as its target MARK1 (Homo sapiens, UniProt Q9P0L2). The conditions noted are these: MARK1, 1 μM; read-out: % control. A digest of the protocol:
as §1

A further experiment addresses T4, KIT(V559D) (Homo sapiens, UniProt P10721, V559D).
T4 construct: purchased KinomeScan®
The settings on record: read-out: % control. The essentials:
as §1

The target of another experiment is T5, TAK1 (Homo sapiens, UniProt O43318).
T5 construct: purchased KinomeScan® (panel service)
T5 sequence (O43318 1-606): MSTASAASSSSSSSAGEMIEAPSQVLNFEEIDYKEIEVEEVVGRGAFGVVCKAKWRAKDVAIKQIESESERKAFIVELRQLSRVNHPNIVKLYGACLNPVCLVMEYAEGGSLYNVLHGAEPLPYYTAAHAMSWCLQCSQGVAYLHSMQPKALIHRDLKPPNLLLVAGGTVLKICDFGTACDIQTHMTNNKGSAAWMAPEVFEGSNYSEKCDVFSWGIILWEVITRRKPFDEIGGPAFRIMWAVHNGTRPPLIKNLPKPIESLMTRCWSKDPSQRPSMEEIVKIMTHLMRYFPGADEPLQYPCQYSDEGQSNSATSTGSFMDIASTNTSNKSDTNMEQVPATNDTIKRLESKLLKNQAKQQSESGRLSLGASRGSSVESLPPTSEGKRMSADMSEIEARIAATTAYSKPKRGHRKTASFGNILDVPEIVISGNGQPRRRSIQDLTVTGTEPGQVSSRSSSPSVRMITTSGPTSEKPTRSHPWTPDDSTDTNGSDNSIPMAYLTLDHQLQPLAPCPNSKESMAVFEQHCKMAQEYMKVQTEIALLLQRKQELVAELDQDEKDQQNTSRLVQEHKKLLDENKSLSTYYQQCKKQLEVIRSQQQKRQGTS
The settings on record: TAK1, 1 μM; read-out: % control. The essentials:
as §1

Sequence of MARK1 (Q9P0L2 whole entry): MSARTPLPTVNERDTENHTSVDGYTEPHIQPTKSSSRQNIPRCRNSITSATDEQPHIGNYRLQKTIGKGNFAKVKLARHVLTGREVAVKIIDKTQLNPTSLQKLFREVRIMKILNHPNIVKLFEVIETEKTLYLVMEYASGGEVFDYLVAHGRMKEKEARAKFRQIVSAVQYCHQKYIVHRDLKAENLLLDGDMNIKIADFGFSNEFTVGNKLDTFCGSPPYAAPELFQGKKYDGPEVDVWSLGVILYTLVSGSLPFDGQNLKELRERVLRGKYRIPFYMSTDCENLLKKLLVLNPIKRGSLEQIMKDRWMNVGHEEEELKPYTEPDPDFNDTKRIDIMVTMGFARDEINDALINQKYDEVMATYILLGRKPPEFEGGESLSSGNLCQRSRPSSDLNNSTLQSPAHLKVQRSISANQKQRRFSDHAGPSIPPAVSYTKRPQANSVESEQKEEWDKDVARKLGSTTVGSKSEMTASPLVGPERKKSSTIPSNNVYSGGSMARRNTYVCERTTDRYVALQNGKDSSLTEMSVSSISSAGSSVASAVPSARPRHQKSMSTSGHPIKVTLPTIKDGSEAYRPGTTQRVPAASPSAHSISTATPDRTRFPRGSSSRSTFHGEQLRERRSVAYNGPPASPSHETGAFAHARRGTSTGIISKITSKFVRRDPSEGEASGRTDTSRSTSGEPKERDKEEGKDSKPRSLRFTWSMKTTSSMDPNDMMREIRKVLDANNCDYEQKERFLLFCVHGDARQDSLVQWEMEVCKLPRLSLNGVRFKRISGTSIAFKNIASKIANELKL
T4 sequence (P10721 26-976 V559D): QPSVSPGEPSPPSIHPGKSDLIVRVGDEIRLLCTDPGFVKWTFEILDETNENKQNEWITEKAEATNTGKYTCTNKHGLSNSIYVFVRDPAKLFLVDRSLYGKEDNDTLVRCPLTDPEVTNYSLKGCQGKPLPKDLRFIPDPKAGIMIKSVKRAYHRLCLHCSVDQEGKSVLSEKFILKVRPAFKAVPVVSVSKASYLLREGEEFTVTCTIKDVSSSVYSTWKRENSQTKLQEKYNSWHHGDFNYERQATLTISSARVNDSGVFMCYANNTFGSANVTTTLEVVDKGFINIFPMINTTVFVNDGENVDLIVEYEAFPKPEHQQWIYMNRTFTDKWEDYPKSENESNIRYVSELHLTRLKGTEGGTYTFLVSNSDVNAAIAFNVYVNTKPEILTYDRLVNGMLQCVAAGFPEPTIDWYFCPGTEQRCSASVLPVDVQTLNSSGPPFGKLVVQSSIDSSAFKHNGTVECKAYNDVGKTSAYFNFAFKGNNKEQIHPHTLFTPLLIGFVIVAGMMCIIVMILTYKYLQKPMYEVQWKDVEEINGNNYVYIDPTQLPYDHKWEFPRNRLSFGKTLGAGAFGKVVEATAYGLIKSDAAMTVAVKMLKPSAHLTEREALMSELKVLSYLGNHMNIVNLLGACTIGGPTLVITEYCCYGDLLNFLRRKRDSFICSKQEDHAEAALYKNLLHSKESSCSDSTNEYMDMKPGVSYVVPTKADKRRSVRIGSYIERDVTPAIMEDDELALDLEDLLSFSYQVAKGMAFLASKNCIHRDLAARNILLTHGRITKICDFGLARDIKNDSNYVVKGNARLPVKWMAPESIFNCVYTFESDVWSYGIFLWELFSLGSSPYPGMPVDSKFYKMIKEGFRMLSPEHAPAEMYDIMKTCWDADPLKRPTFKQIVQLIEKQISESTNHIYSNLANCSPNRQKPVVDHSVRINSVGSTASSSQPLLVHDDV
Sequence of DYRK1B (Q9Y463 whole entry): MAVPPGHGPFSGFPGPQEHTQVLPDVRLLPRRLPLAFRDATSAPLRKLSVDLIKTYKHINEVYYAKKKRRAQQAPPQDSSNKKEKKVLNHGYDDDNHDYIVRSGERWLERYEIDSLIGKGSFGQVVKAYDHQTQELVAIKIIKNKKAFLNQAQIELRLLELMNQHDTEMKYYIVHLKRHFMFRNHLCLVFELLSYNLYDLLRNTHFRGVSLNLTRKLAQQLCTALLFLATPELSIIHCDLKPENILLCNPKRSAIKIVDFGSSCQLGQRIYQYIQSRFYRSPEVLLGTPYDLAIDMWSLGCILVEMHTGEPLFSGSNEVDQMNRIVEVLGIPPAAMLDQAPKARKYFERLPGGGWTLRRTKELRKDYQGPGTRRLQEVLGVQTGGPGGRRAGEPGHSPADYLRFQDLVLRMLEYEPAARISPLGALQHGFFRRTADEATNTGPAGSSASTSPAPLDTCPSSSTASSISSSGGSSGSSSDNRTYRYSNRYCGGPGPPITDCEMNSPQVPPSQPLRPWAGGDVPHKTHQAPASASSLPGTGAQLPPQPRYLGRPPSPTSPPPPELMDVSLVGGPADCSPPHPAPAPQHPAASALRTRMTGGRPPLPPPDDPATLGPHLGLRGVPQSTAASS
Sequence of YES (P07947 whole entry): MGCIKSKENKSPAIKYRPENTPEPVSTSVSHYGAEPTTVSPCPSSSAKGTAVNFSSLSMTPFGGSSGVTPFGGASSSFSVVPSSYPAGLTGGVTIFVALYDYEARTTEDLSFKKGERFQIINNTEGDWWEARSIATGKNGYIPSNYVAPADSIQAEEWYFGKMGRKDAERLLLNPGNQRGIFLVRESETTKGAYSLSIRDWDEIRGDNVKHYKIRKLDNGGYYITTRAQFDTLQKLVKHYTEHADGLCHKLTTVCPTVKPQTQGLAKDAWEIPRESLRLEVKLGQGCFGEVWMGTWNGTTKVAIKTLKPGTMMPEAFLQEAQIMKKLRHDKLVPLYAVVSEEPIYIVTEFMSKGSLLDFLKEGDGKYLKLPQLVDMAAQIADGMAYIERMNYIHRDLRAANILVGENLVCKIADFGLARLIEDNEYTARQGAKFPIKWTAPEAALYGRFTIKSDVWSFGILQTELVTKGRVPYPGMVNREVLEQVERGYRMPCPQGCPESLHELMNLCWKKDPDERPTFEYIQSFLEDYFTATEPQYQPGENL

Take `CNc1c(-c2ccc(C(=O)N3CCC(N4CCOCC4)CC3)cc2)cnc2[nH]cc(Cl)c12` [Compound 96, (4-(3-chloro-4-(methylamino)-1H-pyrrolo[2,3-b]pyridin-5-yl)phenyl)(4-morpholinopiperidin-1-yl)methanone]: the remaining binding at 1 µM on YES turned out to be 100%; at LKB1, 91%; at DYRK1B, 100%; at MLK3, 99%; in experiment [1] it was 100%; at ROCK2 it was 1.4%. For the same molecule, the remaining binding at 1 µM at TYRO3 was determined as 100%; on ROS1, 89%; on MARK1, 72%; on KIT(V559D), 4.5%; on TAK1 it was 6.9%.

`O=C(c1ccc(-c2cnc3[nH]cc(Cl)c3c2NC2CCCC2)cc1)N1CCC(N2CCOCC2)CC1` [Compound 101, (4-(3-chloro-4-(cyclopentylamino)-1H-pyrrolo[2,3-b]pyridin-5-yl)phenyl)(4-morpholinopiperidin-1-yl)methanone]: the remaining binding at 1 µM at YES turned out to be 100%; at LKB1, 78%; at DYRK1B, 89%; on MLK3, 100%; in experiment [1], 100%; at ROCK2, 81%. In addition, the remaining binding at 1 µM on TYRO3 is 56%; at ROS1, 73%; on MARK1, 80%; on KIT(V559D), 50%; at TAK1, 6.1%.

With `CNc1c(-c2cnn([C@H]3CCN(C(C)=O)C[C@@H]3F)c2)cnc2[nH]cc(Cl)c12` [Compound 77, 1-((3S,4S)-4-(4-(3-chloro-4-(methylamino)-1H-pyrrolo[2,3-b]pyridin-5-yl)-1H-pyrazol-1-yl)-3-fluoropiperidin-1-yl)ethan-1-one], the remaining binding at 1 µM on YES worked out at 100%; on LKB1, 88%; on DYRK1B, 100%; at MLK3, 93%; in experiment [1] it was 95%; on ROCK2 it was 8.9%. Moreover, the remaining binding at 1 µM on TYRO3 worked out at 100%; on ROS1 it was 74%; on MARK1, 71%; at KIT(V559D), 2.8%; on TAK1 it was 21%.
